Like-named read-outs stand apart in the source and are kept apart here.
Columns and labels:
[1] = tested on: neuropathic pain after L5-L6 spinal nerve injury; assay: Spinal nerve ligation (SNL, Chung) neuropathic pain model, von Frey test; format: in vivo, rat; conditions: 30 mg/kg i.p.; for % MPE (% Maximum Possible Effect): rat, 18 days after L5-L6 spinal nerve injury, von Frey test 2 hrs post-dose, number of experiments in brackets; for anti-allodynic effect on paw withdrawal threshold and % MPE: rats 18 days after L5-L6 spinal nerve injury, mechanical allodynia 2 hrs post-dose, p<0.001 vs vehicle
Text: This example describes the use of an animal model for testing compounds of the disclosure for their ability to reduce neuropathic pain. For the neuropathic pain model (spinal nerve ligation, SNL) also known as the Chung model, rats are anesthetized with isoflurane and placed on a heating pad. Using aseptic techniques, the L5 and L6 spinal nerves are exposed, ligated and transected (Kim, S. H. and Chung, J. […] Muscle and skin are closed with 4-0 Polydiaxone and wound clips, respectively. Allodynia is assessed 2-4 weeks post SNL surgery and only rats that develop allodynia as defined by a significant decrease in their mechanical threshold using von Frey filaments are used. Tactile allodynia is assessed with calibrated von Frey filaments (Stoelting Co, Wood Dale, Ill.), using an up-down paradigm (Chaplan, S. R., et al. (1994) J. Neurosci. Methods, 53 (1): 55-63). […] Test compounds are administered to the surgically treated rats either orally or I.P, and pain measurements are assessed at post-dosing intervals that correspond to near-maximal peak plasma concentrations for the test compound and specific mode of administration. The action of test compounds 175, 180, and 198 was evaluated in the Chung model after surgery to induce neuropathy. […] (10 ml/kg) was administered as a positive control group. Vehicle and test compounds were dissolved in 10% DMSO, 20% Tween-80 and 40% PEG-400. On the day before treatment, the neuropathic pain basal response was measured by von Frey test and the rats were randomized based on PWT responses. A cut-off of <4.0 g was considered before selection of animals for treatment. On the day of treatment, the test compounds were administered at 30 mg/kg i.p. (10 ml/kg) dissolved in 10% DMSO, 20% Tween-80, 40% PEG-400. […] (10 ml/kg). The mechanical allodynia was measured at 2 hrs post-dose. Results for compound 175 are shown in FIGS. 1 and 2 where data are presented as paw withdrawal threshold (PWT in g) (FIG. 1) and percentage of maximal possible effect (% MPE) (FIG. 2). Each bar represents the mean±SEM of 8 rats.

human TRPA1 = target: T1, human TRPA1 (Homo sapiens, UniProt O75762); assay: Cell-based functional intracellular calcium ([Ca2+]i) assay, Fluo-4/Fluo-8, FlexStation, challenge with reference TRPA1 agonist (FFA, AITC or 4-HNE)
T1 construct: expressed in transfected cells
T1 sequence (O75762 whole entry): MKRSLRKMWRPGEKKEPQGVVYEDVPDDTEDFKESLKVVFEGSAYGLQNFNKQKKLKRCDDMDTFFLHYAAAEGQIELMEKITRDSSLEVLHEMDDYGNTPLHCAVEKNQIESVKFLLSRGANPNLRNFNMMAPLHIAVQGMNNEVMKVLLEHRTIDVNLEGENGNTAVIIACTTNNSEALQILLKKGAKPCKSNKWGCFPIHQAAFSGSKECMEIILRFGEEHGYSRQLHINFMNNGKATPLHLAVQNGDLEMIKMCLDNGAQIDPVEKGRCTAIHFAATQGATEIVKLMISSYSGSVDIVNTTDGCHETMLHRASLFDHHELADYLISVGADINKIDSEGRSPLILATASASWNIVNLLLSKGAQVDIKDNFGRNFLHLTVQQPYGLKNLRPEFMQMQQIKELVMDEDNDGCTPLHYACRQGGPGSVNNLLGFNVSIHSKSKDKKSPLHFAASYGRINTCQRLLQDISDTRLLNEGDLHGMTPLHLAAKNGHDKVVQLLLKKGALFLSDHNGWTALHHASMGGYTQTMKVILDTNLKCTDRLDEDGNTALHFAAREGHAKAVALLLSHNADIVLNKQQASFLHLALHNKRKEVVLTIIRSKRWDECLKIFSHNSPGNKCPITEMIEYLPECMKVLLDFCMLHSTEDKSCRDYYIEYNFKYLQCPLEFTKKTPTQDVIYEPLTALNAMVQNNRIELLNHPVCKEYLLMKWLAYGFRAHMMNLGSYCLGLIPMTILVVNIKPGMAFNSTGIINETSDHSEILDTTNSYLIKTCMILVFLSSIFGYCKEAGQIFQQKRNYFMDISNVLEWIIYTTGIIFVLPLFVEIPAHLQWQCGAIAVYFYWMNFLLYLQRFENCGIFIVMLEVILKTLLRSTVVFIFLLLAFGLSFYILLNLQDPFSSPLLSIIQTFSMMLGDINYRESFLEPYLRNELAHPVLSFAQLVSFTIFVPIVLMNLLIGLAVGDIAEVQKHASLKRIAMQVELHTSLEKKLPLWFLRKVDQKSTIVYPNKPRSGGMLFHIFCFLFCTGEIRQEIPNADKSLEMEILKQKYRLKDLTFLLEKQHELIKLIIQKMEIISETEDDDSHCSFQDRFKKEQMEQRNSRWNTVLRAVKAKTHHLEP
How it was run: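 Doxycycline-induced (1 μg/ml) HEK293 expressing human TRPA1, with 5 μM ruthenium red during induction, loaded with Fluo-4 or Fluo-8 plus 2 mM probenecid; FlexStation read at 20-25° C, sometimes with 0.1% BSA.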

[2] = tested on: paclitaxel-induced neuropathic pain; assay: Paclitaxel chemotherapy-induced neuropathic pain model, von Frey filaments; format: in vivo; conditions: rat paclitaxel model, 10 mg/kg i.p.; for % MPE for reversing paclitaxel induced neuropathic pain: mechanical allodynia (von Frey)
Text: Chemotherapy-induced peripheral neuropathy is one of the most serious complications of anti-cancer drug therapy. […] The TRPA1 antagonist, AD_09, has been reported to reduce neuropathic pain in the oxaliplatin model (Nativi, C, et al. (2013) Scientific Reports 3, 2005, 1-10.)
The studies described below provide a method to test compounds of the present invention in the established rat model of paclitaxel-induced neuropathic pain (Flatters, S J and Bennett, G, Pain (2004) 109:150-161) and provide evidence for efficacy for one compound of the present invention. In this procedure, male Sprague-Dawley rats received i.p. injections of 1 mg/kg paclitaxel or vehicle solution every other day for a total of 4 injections (Day 0, 2, 4 and 6). After receiving injections on even-number experimental days, the rats were tested for mechanical and cold allodynia on odd-number experimental days. After the full development of allodynia after the last paclitaxel injection on day 11, one subgroup of the rats (7 rats per treatment group) received an oral dose or i.p. injection of compound of the present invention (e.g., 1, 3, 10 or 30 mg/kg) or its vehicle solution. On the day of treatment, the test compound was administered at 10 mg/kg i.p. (2 ml/kg) dissolved in 10% DMSO, 20% Tween-80, 40% PEG-400. Additional test groups included vehicle control and gabapentin at 10, 30 and 100 mg/kg i.p. (2 ml/kg). The mechanical allodynia was measured at 2 hrs post-dose for compound 271. Mechanical allodynia was measured using the Von Frey filaments to determine the paw withdrawal threshold for each animal and assess the effects of the test compound-s to reduce pain. Rats were tested for mechanical and/or cold allodynia 1 hour after dosing.
Rats can be tested at approximately 2 hour intervals thereafter (time interval dependent on the effect) as long as the effect of TRPA1 antagonist lasts. In some cases, more than one treatment of the compound of the present invention (TRPA1 antagonist) can be given before or after the effect of the previous dose subsides to provide repetitive dosing regimens.

[3] = HEK293 cells expressing human TRPA1, IC50 class after addition of reference TRPA1 agonist (FFA, AITC or 4-HNE), read-out: human TRPA1-HEK Activity

With `O=C(c1cc(-c2ccncc2)n(-c2cc(F)c(F)c(F)c2)n1)N1CCC(n2c(=O)[nH]c3ccc(F)c(F)c32)CC1` [Compound 175] the “% MPE (% Maximum Possible Effect)” value [1] was 59 ± 10 (3) ^ %, the “anti-allodynic effect on paw withdrawal threshold and % MPE” value [1] was “significant anti-allodynic effect” and the IC50 (human TRPA1; [3]) was 1 to 5000 nM.

In the case of `O=C(c1cc(-c2cccnc2)n(-c2ccc(C(F)(F)F)c(F)c2)n1)N1CCC2(CC1)C(=O)NCN2c1ccc(F)cc1` [Compound 180], the “% MPE (% Maximum Possible Effect)” value [1] is reported as 65 (1) %, the “anti-allodynic effect on paw withdrawal threshold and % MPE” value [1] is reported as “significant anti-allodynic effect” and the IC50 (human TRPA1; [3]) is reported as 1 to 5000 nM.

`O=C(c1cc(-c2cccnc2)n(-c2cc(F)c(F)c(F)c2)n1)N1CCC(n2c(=O)[nH]c3ccc(F)c(F)c32)CC1` [Compound 198] was tested, and the “% MPE (% Maximum Possible Effect)” value [1] was 41 (1) %, the “anti-allodynic effect on paw withdrawal threshold and % MPE” value [1] was “significant anti-allodynic effect” and the IC50 (human TRPA1; [3]) was 1 to 5000 nM.

For `O=C(c1cc(-c2cccnc2)n(-c2ccc(F)c(C(F)(F)F)c2)n1)N1CCC(n2c(=O)[nH]c3ccc(F)c(F)c32)CC1` [Compound 271], the “anti-allodynic effect on paw withdrawal threshold” value ([2]; 2 hrs post-dose, p<0.05) was “significant anti-allodynic effect” and the “% MPE for reversing paclitaxel induced neuropathic pain” value [2] was 49.1 % MPE.

For `N#Cc1cc(C(F)(F)F)ccc1-n1nc(C(=O)N2CCC3(CC2)C(=O)NCN3c2ccc(F)cc2)cc1-c1cccnc1` [Compound 323], the IC50 (human TRPA1; [3]) was 1 to 5000 nM.

`N#Cc1ccc(-n2nc(C(=O)N3CCC4(CC3)C(=O)NCN4c3ccc(F)cc3)cc2-c2cccnc2)c(C(F)(F)F)c1` [Compound 324] gave an IC50 (human TRPA1; [3]) of 1 to 5000 nM.

Compound `N#Cc1ccc(-n2nc(C(=O)N3CCC(n4c(=O)[nH]c5ccc(F)c(F)c54)CC3)cc2-c2cccnc2)c(C(F)(F)F)c1` [Compound 325] has an IC50 (human TRPA1; [3]) of 1 to 5000 nM.

`O=C(c1cc(-c2cccnc2)n(-c2ccc(I)c(C(F)(F)F)c2)n1)N1CCC2(CC1)C(=O)NCN2c1ccc(F)cc1` [Compound 326] was tested, and the IC50 (human TRPA1; [3]) was 1 to 5000 nM.

In the case of `O=C(c1cc(-c2cccnc2)n(-c2ccc(I)c(C(F)(F)F)c2)n1)N1CCC(n2c(=O)[nH]c3ccc(F)c(F)c32)CC1` [Compound 327], the IC50 (human TRPA1; [3]) is reported as 1 to 5000 nM.

`N#Cc1ccc2[nH]c(=O)n(C3CCN(C(=O)c4cc(-c5cccnc5)n(-c5ccc(C#N)c(F)c5)n4)CC3)c2c1` [Compound 328] showed an IC50 (human TRPA1; [3]) of 1 to 5000 nM.

Compound `Cc1cc(N2CNC(=O)C23CCN(C(=O)c2cc(-c4cccnc4)n(-c4ccc(C#N)c(F)c4)n2)CC3)cc(C)c1F` [Compound 329] has an IC50 (human TRPA1; [3]) of 1 to 5000 nM.

With `N#Cc1ccc(-n2nc(C(=O)N3C4CCC3CC3(C4)C(=O)NCN3c3ccc(F)cc3)cc2-c2cccnc2)cc1F` (centres unmarked) [Compound 330] the IC50 (human TRPA1) was 1 to 5000 nM.

`O=C(c1cc(-c2cccnc2)n(-c2ccc(F)c(C(F)(F)F)c2)n1)N1C2CCC1CC(n1c(=O)[nH]c3ccc(F)c(F)c31)C2` (centres unmarked) [Compound 331] was tested, and the IC50 (human TRPA1) was 1 to 5000 nM.

In the case of `O=C(c1cc(-c2cccnc2)n(-c2ccc(F)c(C(F)(F)F)c2)n1)N1CCC2(CC1)C(=O)NCN2c1cc(Cl)c(F)c(Cl)c1` [Compound 332], the IC50 (human TRPA1; [3]) is reported as 1 to 5000 nM.

`O=C(c1cc(-c2cccnc2)n(-c2ccc(F)c(C(F)(F)F)c2)n1)N1C2CCC1CC1(C2)C(=O)NCN1c1ccc(F)cc1` (centres unmarked) [Compound 333] was tested, and the IC50 (human TRPA1) was 1 to 5000 nM.

For `NCC1(CC(=O)O)CCCCC1` [gabapentin, reference compound], the “% MPE for reversing paclitaxel induced neuropathic pain” value [2] was 34.8 % MPE.

Source: patent US9951046B2, “TRPA1 modulators” (Algomedix, Inc., priority 2014, dated 2018)
